Measurements reported in patent US12162858B2, “Quinoline derivatives as inhibitors of AXL/MER RTK and CSF1R” (QURIENT CO., LTD., priority 2018, dated 2024).

Target: T1, Axl (Homo sapiens, UniProt P30530)
T1 sequence (P30530 26-894): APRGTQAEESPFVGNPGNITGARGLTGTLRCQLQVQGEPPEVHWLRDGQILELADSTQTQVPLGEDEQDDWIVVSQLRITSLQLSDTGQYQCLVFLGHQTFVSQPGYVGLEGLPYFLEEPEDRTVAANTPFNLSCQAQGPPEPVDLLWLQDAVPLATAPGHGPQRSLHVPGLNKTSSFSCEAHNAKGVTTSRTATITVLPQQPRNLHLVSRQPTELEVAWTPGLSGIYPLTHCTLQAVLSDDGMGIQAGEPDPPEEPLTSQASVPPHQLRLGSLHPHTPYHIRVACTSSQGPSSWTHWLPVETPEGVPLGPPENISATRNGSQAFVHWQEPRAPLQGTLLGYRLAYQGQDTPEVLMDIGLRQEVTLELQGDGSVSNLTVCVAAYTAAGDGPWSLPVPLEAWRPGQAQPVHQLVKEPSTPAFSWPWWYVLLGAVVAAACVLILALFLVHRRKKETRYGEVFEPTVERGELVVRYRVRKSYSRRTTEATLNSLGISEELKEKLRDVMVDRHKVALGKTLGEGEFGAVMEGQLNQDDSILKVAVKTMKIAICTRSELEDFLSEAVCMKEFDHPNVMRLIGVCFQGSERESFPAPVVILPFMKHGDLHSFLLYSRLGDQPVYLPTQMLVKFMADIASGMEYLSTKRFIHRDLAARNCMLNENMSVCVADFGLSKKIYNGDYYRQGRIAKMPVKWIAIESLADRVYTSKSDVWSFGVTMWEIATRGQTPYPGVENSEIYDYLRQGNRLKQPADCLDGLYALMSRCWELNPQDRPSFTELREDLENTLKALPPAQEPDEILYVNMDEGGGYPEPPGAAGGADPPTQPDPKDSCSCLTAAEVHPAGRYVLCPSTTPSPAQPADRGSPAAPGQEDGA
Test: Cellular Axl inhibition ELISA (p-Axl, Gas6-induced) using H1299 cells
Assay type: cell-based
Design: especially H1299 cell endogenously expresses Axl; endogenous in cells; host or cells: H1299
Details: read-out: Cellular Axl activity by H1299 Elisa (IC50)
Procedure, shortened: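 H1299 cells, seeded overnight, exposed 24 h at 37 °C to 10-point 3-fold compound dilutions, then stimulated with 200 ng/ml human Gas6 (final) for 1 h. Lysates assayed for p-Axl by sandwich ELISA with HRP/TMB, absorbance 450 nm; IC50 by sigmoidal dose-response fit.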

IC50, ≥ 1 µM:
CCCn1cc(OCCC(O)CO)c(C(=O)Nc2ccc(Oc3ccnc4cc(OC)c(OC)cc34)cn2)n1 (stereo not shown) [Compound 15]
CCCn1cc(N(C)CC2CCOCC2)c(C(=O)Nc2ccc(Oc3ccnc4cc(OC)c(OC)cc34)cn2)n1 [Compound 34]
CCCn1cc(OC(C)C)c(C(=O)Nc2ccc(Oc3ccnc4cc(OC)c(OC(F)(F)F)cc34)c(F)c2)n1 [Compound 35]
COc1cc2nccc(Oc3ccc(NC(=O)c4nn(C)cc4OCC(F)(F)F)cc3C)c2cc1OC [Compound 37]
COc1cc2nccc(Oc3ccc(NC(=O)c4nn(CCO)cc4OCC(F)(F)F)cc3C)c2cc1OC [Compound 56]

IC50, 0.5 to 1 µM:
COc1cc2nccc(Oc3ccc(NC(=O)c4nn(C)cc4OCC(F)(F)F)c(F)c3)c2cc1OC [Compound 45]

IC50, < 0.5 µM:
CCn1nc(C(=O)Nc2ccc(Oc3ccnc4cc(OC)c(OC)cc34)cn2)c(OCC(F)(F)F)c1C [Compound 1]
COc1cc2nccc(Oc3ccc(NC(=O)c4nn(C(C)C)c(C)c4OCC(F)(F)F)nc3)c2cc1OC [Compound 2]
COc1cc2nccc(Oc3ccc(NC(=O)c4nn(C5CC5)c(C(C)=O)c4OCC(F)(F)F)nc3)c2cc1OC [Compound 3]
COc1cc2nccc(Oc3ccc(NC(=O)c4nn(C5CCOC5)cc4OCC(F)(F)F)nc3)c2cc1OC (stereo not shown) [Compound 13]
CCCn1cc(OCCF)c(C(=O)Nc2ccc(Oc3ccnc4cc(OC)c(OC)cc34)cn2)n1 [Compound 14]
COc1cc2nccc(Oc3ccc(NC(=O)c4nn(CC(C)O)cc4OCC(F)(F)F)nc3)c2cc1OC (stereo not shown) [Compound 17]
COc1cc2nccc(Oc3ccc(NC(=O)c4nn(CCCO)cc4OCC(F)(F)F)nc3)c2cc1OC [Compound 18]
COc1cc2nccc(Oc3ccc(NC(=O)c4nn(CC(C)=O)cc4OCC(F)(F)F)nc3)c2cc1OC [Compound 19]
CCC(=O)n1cc(OCC(F)(F)F)c(C(=O)Nc2ccc(Oc3ccnc4cc(OC)c(OC)cc34)cn2)n1 [Compound 20]
COc1cc2nccc(Oc3ccc(NC(=O)c4nn(CC(C)C)cc4OCC(F)(F)F)nc3)c2cc1OC [Compound 21]
COc1cc2nccc(Oc3ccc(NC(=O)c4nn(C(C)(C)C)cc4OCC(F)(F)F)nc3)c2cc1OC [Compound 22]
CCCn1cc(NCC(F)(F)F)c(C(=O)Nc2ccc(Oc3ccnc4cc(OC)c(OC)cc34)cn2)n1 [Compound 23]
COc1cc2nccc(Oc3ccc(NC(=O)c4nn(C5CCC5)cc4OCC(F)(F)F)nc3)c2cc1OC [Compound 24]
CCCn1cc(OCC(F)(F)F)c(C(=O)Nc2ccc(Oc3ccnc4cc(OC)c(OC)cc34)c(F)c2)n1 [Compound 25]
CCCn1cc(OCC(F)(F)F)c(C(=O)Nc2ccc(Oc3ccnc4cc(OC)c(OC)cc34)c(C)c2)n1 [Compound 26]
CCCn1cc(OCC(F)(F)F)c(C(=O)Nc2ccc(Oc3ccnc4cc(OC)c(OC)cc34)cc2C)n1 [Compound 27]
CCCn1cc(OCC(F)(F)F)c(C(=O)Nc2ccc(Oc3ccnc4cc(OC)c(OC)cc34)cc2F)n1 [Compound 28]
COc1cc2nccc(Oc3ccc(NC(=O)c4nn(C[C@@H](C)O)cc4OCC(F)(F)F)nc3)c2cc1OC [Compound 29]
COc1cc2nccc(Oc3ccc(NC(=O)c4nn(C[C@H](C)O)cc4OCC(F)(F)F)nc3)c2cc1OC [Compound 30]
CCCn1cc(OCCC(F)(F)F)c(C(=O)Nc2ccc(Oc3ccnc4cc(OC)c(OC)cc34)cn2)n1 [Compound 31]
CCCn1cc(OCC(F)(F)F)c(C(=O)Nc2ccc(Oc3ccnc4cc(OC)c(OC)cc34)nn2)n1 [Compound 32]
COc1cc2nccc(Oc3ccc(NC(=O)c4nn(C)cc4OCC(F)(F)F)nc3)c2cc1OC [Compound 33]
CCCCn1cc(OCC(F)(F)F)c(C(=O)Nc2ccc(Oc3ccnc4cc(OC)c(OC)cc34)cn2)n1 [Compound 36]
CCCn1cc(OCC(F)(F)F)c(C(=O)Nc2ccc(Oc3ccnc4cc(OC)c(OC)cc34)cc2)n1 [Compound 38]
COc1cc2nccc(Oc3ccc(NC(=O)c4nn(CCC#N)cc4OCC(F)(F)F)nc3)c2cc1OC [Compound 39]
COc1cc2nccc(Oc3ccc(NC(=O)c4nn(C5CCCC5)cc4OCC(F)(F)F)nc3)c2cc1OC [Compound 40]
COc1cc2nccc(Oc3ccc(NC(=O)c4nn(CC5CC5)cc4OCC(F)(F)F)nc3)c2cc1OC [Compound 41]
COc1cc2nccc(Oc3ccc(NC(=O)c4nn(CC5CCC5)cc4OCC(F)(F)F)nc3)c2cc1OC [Compound 42]
COc1cc2nccc(Oc3ccc(NC(=O)c4nn(CC5CCCCC5)cc4OCC(F)(F)F)nc3)c2cc1OC [Compound 43]
COc1cc2nccc(Oc3ccc(NC(=O)c4nn(CC5CCOC5)cc4OCC(F)(F)F)nc3)c2cc1OC (stereo not shown) [Compound 44]
COc1cc2nccc(Oc3ccc(NC(=O)c4nn(CCO)cc4OCC(F)(F)F)c(F)c3)c2cc1OC [Compound 46]
COc1cc2nccc(Oc3ccc(NC(=O)c4nn(C5CCCC5)cc4OCC(F)(F)F)c(F)c3)c2cc1OC [Compound 47]
COc1cc2nccc(Oc3ccc(NC(=O)c4nn(CC(C)C)cc4OCC(F)(F)F)c(F)c3)c2cc1OC [Compound 48]
COCCn1cc(OCC(F)(F)F)c(C(=O)Nc2ccc(Oc3ccnc4cc(OC)c(OC)cc34)cc2F)n1 [Compound 49]
COc1cc2nccc(Oc3ccc(NC(=O)c4nn(C)cc4OCC(F)(F)F)cc3F)c2cc1OC [Compound 50]
COc1cc2nccc(Oc3ccc(NC(=O)c4nn(CCO)cc4OCC(F)(F)F)cc3F)c2cc1OC [Compound 51]
COc1cc2nccc(Oc3ccc(NC(=O)c4nn(C5CCCC5)cc4OCC(F)(F)F)cc3F)c2cc1OC [Compound 52]
COc1cc2nccc(Oc3ccc(NC(=O)c4nn(CC(C)C)cc4OCC(F)(F)F)cc3F)c2cc1OC [Compound 53]
COCCn1cc(OCC(F)(F)F)c(C(=O)Nc2ccc(Oc3ccnc4cc(OC)c(OC)cc34)c(F)c2)n1 [Compound 54]
COc1cc2nccc(Oc3ccc(NC(=O)c4nn(C5CCOC5)cc4OCC(F)(F)F)cc3F)c2cc1OC (stereo not shown) [Compound 55]
COc1cc2nccc(Oc3ccc(NC(=O)c4nn(C5CCCC5)cc4OCC(F)(F)F)cc3C)c2cc1OC [Compound 57]
COc1cc2nccc(Oc3ccc(NC(=O)c4nn(CC(C)C)cc4OCC(F)(F)F)cc3C)c2cc1OC [Compound 58]
COc1cc2nccc(Oc3ccc(NC(=O)c4nn(CCO)cc4OCC(F)(F)F)cc3)c2cc1OC [Compound 59]
COc1cc2nccc(Oc3ccc(NC(=O)c4nn(C5CCCC5)cc4OCC(F)(F)F)cc3)c2cc1OC [Compound 60]
COCCn1cc(OCC(F)(F)F)c(C(=O)Nc2ccc(Oc3ccnc4cc(OC)c(OC)cc34)cc2)n1 [Compound 61]
COc1cc2nccc(Oc3ccc(NC(=O)c4nn(C5CCOC5)cc4OCC(F)(F)F)cc3)c2cc1OC (stereo not shown) [Compound 62]
COc1cc2nccc(Oc3ccc(NC(=O)c4nn(CC(C)N)cc4OCC(F)(F)F)nc3)c2cc1OC (stereo not shown) [Compound 63]
COc1cc2nccc(Oc3ccc(NC(=O)c4nn(CC(C)(F)F)cc4OCC(F)(F)F)nc3)c2cc1OC [Compound 64]
COc1cc2nccc(Oc3ccc(NC(=O)c4nn(CCOC5CCC5)cc4OCC(F)(F)F)nc3)c2cc1OC [Compound 65]
COc1cc2nccc(Oc3ccc(NC(=O)c4nn(C5COC5)cc4OCC(F)(F)F)nc3)c2cc1OC [Compound 66]
COc1cc2nccc(Oc3ccc(NC(=O)c4nn(CCO)cc4OCC(F)(F)F)nc3)c2cc1OC [Compound 67]
COc1cc2nccc(Oc3ccc(NC(=O)c4nn(CCCN)cc4OCC(F)(F)F)nc3)c2cc1OC [Compound 68]
COc1cc2nccc(Oc3ccc(NC(=O)c4nn(C5CCCCC5)cc4OCC(F)(F)F)nc3)c2cc1OC [Compound 69]
COc1cc2nccc(Oc3ccc(NC(=O)c4nn(C5CCNC5)cc4OCC(F)(F)F)nc3)c2cc1OC (stereo not shown) [Compound 70]
COc1cc2nccc(Oc3ccc(NC(=O)c4nn(CC5CCCC5)cc4OCC(F)(F)F)nc3)c2cc1OC [Compound 71]
